# Laboratory results from patent US12319652B2, “Salts and solid forms of (R)-1-(5-methoxy-1H-indol-1-yl)-N,N-dimethylpropan-2-amine” (priority 2021, dated 2025).
# Read-outs that look alike come from different tables or passages of the source.
# How the values were obtained:
# [1] = In-situ hydration evaluation of monofumarate Form A; format: physicochemical; conditions: ambient
# Method: An XRPD specimen of monofumarate Form A was prepared and treated with sequential aliquots of water.
# An XRPD plate was made up with a small amount of compound 1·Fumarate (batch 1, 5 mg, 1.0 wt) and analysed by XRPD on the 9-minute method and labelled as T=0. After the run, the sample was charged with purified water (10 μL, 2.0 vol) and analysed again by XRPD, labelled as T=9. This was repeated twice more for T=18 and T=27. The sample was left to stand under ambient conditions (15-25° C., ambient humidity, and pressure) in the fume hood for 33 h (FIG. 23).
# [2] = Dynamic vapor sorption (DVS); format: physicochemical; conditions: for DVS isotherm type / hygroscopicity: 0 to 90 to 0% RH; for DVS mass change at 90.0% RH / DVS mass change at 0.0% RH / DVS mass change at 5.0% RH / DVS mass change at 10.0% RH / DVS mass change at 15.0% RH / DVS mass change at 20.0% RH / DVS mass change at 25.0% RH / DVS mass change at 30.0% RH / DVS mass change at 40.0% RH / DVS mass change at 50.0% RH / DVS mass change at 60.0% RH / DVS mass change at 70.0% RH / DVS mass change at 80.0% RH: dm/dt <0.002%
# Procedure, shortened: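 At 25 °C, 20 to 50 mg sample was dried at 0% RH for 60 minutes, then humidity raised 0-30% in 5% steps and 30-90% in 10% steps, with matching desorption back to 0%. Equilibrium set at dm/dt 0.002%/min; amorphous material was run with fixed 1 hour steps.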
# [3] = Solubility determinations in SIF buffers (FaSSIF, FeSSIF, FaSSGF); format: physicochemical; conditions: 37° C. up to 24 h
# Procedure, shortened: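 Salt forms suspended at 30 mg/ml in FaSSIF, FeSSIF or FaSSGF at 37° C. for 24 h, pH kept in range with 1 M HCl or NaOH. Supernatants sampled at 1, 3, 6 and 24 h, centrifuged and quantified by HPLC as compound 1 free base against amorphous compound 1 calibrants; pellets checked by XRPD for form change.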
# [4] = format: physicochemical
# Method: Both samples were maintained at 75% RH at 40° C. and monitored by HPLC at time points t=1 h, 3 h, 24 h, 48 h, 7 d, 2 w, 3 w, 4 w and 5 w.
# Under the conditions evaluated during this study, XRPD analysis could not be performed as compound 1 Fumarate turned to an oily residue within 3 h under both conditions.
# […] Both samples were maintained under equilibrium humidity of 75% RH at 40° C. and monitored, initially at hourly and then weekly time points.
# [5] = Amorphous forms and thermal study (glass temperature Tg by DSC/TGA); format: physicochemical
structure (smiles),measurement,setting,value
COc1ccc2c(ccn2C[C@@H](C)N(C)C)c1.O=C(O)/C=C/C(=O)O,Form change on treatment with sequential aliquots of water (XRPD),[1],conversion into its amorphous form
same,"RH above which pronounced mono, multilayer sorption and probable deliquescence occurred",[2],> 80 % RH
same,DVS isotherm type / hygroscopicity,[2]; listed as Form A,DVS mass per unit time equlibrated @ dm/dt (0.0002%/min) on Form A was performed (specimen was deliquescent by DVS).
same,DVS isotherm type / hygroscopicity,[2]; listed as compound 1 fumarate crystalline polymorphic Form A,deliquescent type isotherm
same,DVS weight gain at 70% RH,[2]; 70% RH (printed 70° RH in Example 8),ca. 1 % w/w
same,DVS mass change at 90.0% RH,[2]; desorption step (second 90.0 entry),9.440%
same,DVS mass change at 0.0% RH,[2]; desorption step,0.085%
same,DVS mass change at 5.0% RH,[2]; desorption step,0.113%
same,DVS mass change at 10.0% RH,[2]; desorption step,0.141%
same,DVS mass change at 15.0% RH,[2]; desorption step,0.169%
same,DVS mass change at 20.0% RH,[2]; desorption step,0.201%
same,DVS mass change at 25.0% RH,[2]; desorption step,0.238%
same,DVS mass change at 30.0% RH,[2]; desorption step,0.279%
same,DVS mass change at 40.0% RH,[2]; desorption step,0.374%
same,DVS mass change at 50.0% RH,[2]; desorption step,0.476%
same,DVS mass change at 60.0% RH,[2]; desorption step,0.619%
same,DVS mass change at 70.0% RH,[2]; desorption step,0.885%
same,DVS mass change at 80.0% RH,[2]; desorption step,2.087%
same,DVS mass change at 0.0% RH,[2]; sorption step,0.00%
same,DVS mass change at 5.0% RH,[2]; sorption step,0.021%
same,DVS mass change at 10.0% RH,[2]; sorption step,0.047%
same,DVS mass change at 15.0% RH,[2]; sorption step,0.068%
same,DVS mass change at 20.0% RH,[2]; sorption step,0.088%
same,DVS mass change at 25.0% RH,[2]; sorption step,0.107%
same,DVS mass change at 30.0% RH,[2]; sorption step,0.125%
same,DVS mass change at 40.0% RH,[2]; sorption step,0.173%
same,DVS mass change at 50.0% RH,[2]; sorption step,0.242%
same,DVS mass change at 60.0% RH,[2]; sorption step,0.366%
same,DVS mass change at 70.0% RH,[2]; sorption step,0.590%
same,DVS mass change at 80.0% RH,[2]; sorption step,0.174%
same,DVS mass change at 90.0% RH,[2]; sorption step,9.440%
same,Solubility in FaSSGF,[3],"Solubility in SIF buffers: Soluble in FaSSIF, FeSSIF and FaSSGF at 37°"
same,Solubility in FaSSIF,[3],"Solubility in SIF buffers: Soluble in FaSSIF, FeSSIF and FaSSGF at 37°"
same,Solubility in FeSSIF,[3],"Solubility in SIF buffers: Soluble in FaSSIF, FeSSIF and FaSSGF at 37°"
COc1ccc2c(ccn2C[C@@H](C)N(C)C)c1.O=C(O)/C=C/C(=O)O [amorphous compound 1 fumarate],HPLC (% area),[4]; input batch 1 before storage at 75% RH/40° C.,93.84 % area
same,HPLC (% area),"[4]; open-necked wide vial, 75% RH/40° C., t = 2 w",91.24 % area
same,HPLC (% area),"[4]; open-necked wide vial, 75% RH/40° C., t = 3 w",94.17 % area
same,HPLC (% area),"[4]; open-necked wide vial, 75% RH/40° C., t = 4 w",91.86 % area
same,HPLC (% area),"[4]; open-necked wide vial, 75% RH/40° C., t = 5 w",91.57 % area
same,HPLC (% area),"[4]; sealed PK0056 electrostatic bags, 75% RH/40° C., t = 2 w",91.21 % area
same,HPLC (% area),"[4]; sealed PK0056 electrostatic bags, 75% RH/40° C., t = 3 w",91.94 % area
same,HPLC (% area),"[4]; sealed PK0056 electrostatic bags, 75% RH/40° C., t = 4 w",90.9 % area
same,HPLC (% area),"[4]; sealed PK0056 electrostatic bags, 75% RH/40° C., t = 5 w",91.3 % area
same,"DSC measurements, Endset",[5]; DSC thermal event Tg,34.30 °C
same,"DSC measurements, Integral",[5]; DSC thermal event Tg,−1.73 Jg^−1
same,"DSC measurements, Onset",[5]; DSC thermal event Tg,21.14 °C
same,"DSC measurements, Peak",[5]; DSC thermal event Tg,29.67 °C
same,Form Assignment,[5]; heated up past the melt event on a hot stage microscope,Amorphous
